Measured values taken from patent US8404736B2, “Heterocyclic amide derivatives as EP4 receptor antagonists” (Beta Pharma Canada Inc., priority 2008, dated 2013).

Molecular target: T1, EP4 receptor (Homo sapiens, UniProt P35408)
T1 construct: host or cells: HEK 293(ebna) according to the general protocol; cells used by the contract laboratory not given
Experiment: EP4 receptor binding assay (inhibition of [3H]PGE2 binding, MSD Pharma Service)
Conditions: 1 nM [3H] PGE2, Human recombinant Chem-1 cells; for inhibition at 0.002 µM: Tested Concentration 2 nM; for inhibition at 0.01 µM: Tested Concentration 10 nM
Method: Transfected HEK 293(ebna) cells are maintained in culture, harvested and membranes are prepared by differential centrifugation, following lysis of the cells in the presence of protease inhibitors, for use in receptor binding assays. Prostanoid receptor binding assays (for DP1, DP2 (CRTH2), EP1, EP2, EP3-III, EP4, FP, IP, and TP) are performed in 10 mM MES/KOH (pH 6.0) (EPs, FP and TP) or 10 mM HEPES/KOH (pH 7.4) (DPs and IP), containing 1 mM EDTA, 2.5-30 mM divalent cation and the appropriate radioligand. Synthetic compounds are added in dimethylsulfoxide which is kept constant at 1% (v/v) in all incubations. The reaction is initiated by addition of membrane protein. Non-specific binding is determined in the presence of 10 μM of the corresponding non-radioactive prostanoid. Incubations are conducted for 60-90 min at room temperature or 30° C. and terminated by rapid filtration. Specific binding is calculated by subtracting non specific binding from total binding. The residual specific binding at each ligand concentration is calculated and expressed as a function of ligand concentration in order to construct sigmoidal concentration-response curves. The binding affinity of the compounds is determined by calculating the equilibrium inhibition constant (Ki) from the equation Ki=InPt/1[radioligand]/Kd where Kd is the equilibrium dissociation constant for the radioligand:receptor interaction and InPt is the inflection point of the dose-response curves.
EP4 receptor binding assays were performed at MSD Pharma Service in Taiwan under the following assay conditions: […]

T1 sequence (P35408 whole entry): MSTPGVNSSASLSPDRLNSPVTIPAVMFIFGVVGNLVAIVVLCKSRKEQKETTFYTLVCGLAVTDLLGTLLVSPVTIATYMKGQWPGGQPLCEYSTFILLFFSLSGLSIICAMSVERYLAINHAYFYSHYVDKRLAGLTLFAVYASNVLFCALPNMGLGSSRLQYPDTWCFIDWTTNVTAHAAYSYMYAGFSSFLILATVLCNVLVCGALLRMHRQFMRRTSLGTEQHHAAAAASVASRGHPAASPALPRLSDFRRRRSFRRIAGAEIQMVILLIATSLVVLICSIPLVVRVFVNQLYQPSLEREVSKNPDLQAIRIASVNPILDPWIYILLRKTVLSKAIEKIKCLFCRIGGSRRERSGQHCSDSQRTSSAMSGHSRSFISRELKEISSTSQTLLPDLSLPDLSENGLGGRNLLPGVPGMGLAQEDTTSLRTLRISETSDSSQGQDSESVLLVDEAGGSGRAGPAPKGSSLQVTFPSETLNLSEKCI

inhibition at 0.002 µM [%]	inhibition at 0.01 µM [%]	Compound
88		O=C(O)c1ccc(C2(NC(=O)c3csc4ccn(Cc5ccc(C(F)(F)F)cc5)c34)CC2)cc1
93		Cc1sc2ccn(Cc3ccc(C(F)(F)F)cc3)c2c1C(=O)NC1(c2ccc(C(=O)O)cc2)CC1
	85	Cc1sc2ccn(Cc3ccc(C(F)(F)F)cc3)c2c1C(=O)NC(C)c1ccc(C(=O)O)cc1 (centres unmarked)
	87	CC(NC(=O)c1csc2ccn(Cc3ccc(C(F)(F)F)cc3)c12)c1ccc(C(=O)O)cc1 (centres unmarked)
	83	O=C(O)c1ccc(C2(NC(=O)c3cccc4c3N(Cc3ccc(C(F)(F)F)cc3)C(=O)C4)CC2)cc1
